Data set [1] can be described thus: Patient case example, LDL cholesterol (Example 14). Conditions: person, baseline 140 mg/dL, over several months. Format: in vivo, humans.
Data set [2] deals with retinal ganglion cell layer (GCL). From the text:
After 3 months, mice were sacrificed, and their eyes were carefully isolated by microdissection. The eyes were fixed in formalin and sectioned to allow visualization of the retina.

For data set [3] the following is noted: oral; cited from earlier work.
Data set [4] relates to inflammatory cytokines in OA synovium. Put plainly: Multiplex cytokine analysis of synovium from DMM joints. Conditions: HCQ sulfate 100 mg/kg/day or atorvastatin calcium 40 mg/kg/day, 3 months; vs vehicle. Format: in vivo, C57BL6 (B6) mice. As for the experimental part: FIG. 14. […] 3 months after surgery, the mice were sacrificed and the synovium of the operated joint isolated. The collected synovial membrane tissues were used to generate protein lysates, on which multiplex cytokine analysis was performed using the Luminex System and the Bio-Rad BioPlex 23plex mouse cytokine detection kit. Each sample was run in triplicate. […] (A) Heatmap presenting the relative levels (as compared to mean levels in the vehicle-control treated group). (B) Bar-graph display of mean cytokine levels for the indicated treatment groups.
After 3 months, mice were sacrificed, their joints harvested, and synovial tissue isolated from the joint by microdissection. The synovial tissues were homogenized and centrifuged, and the resulting supernatants were assayed for levels of inflammatory cytokines by using a multiplex bead-based cytokine assay (BioRad Laboratories, Hercules, Calif.).

For data set [5] the following is noted: currently FDA-approved doses; cited from earlier work.
The test system of data set [6] is retina. As to conditions: cited from earlier work; for ophthalmoscopically visualized loss of retinal pigmented epithelium (eye toxicity): treated humans after 5 years.
The conditions of data set [7]: cited from earlier work.
For data set [8], the system named is non-erosive OA. Conditions: general non-erosive human OA; cited from earlier work.
Data set [9] relates to osteoarthritis (OA) induced by destabilization of the medial meniscus (DMM). Description: DMM mouse model of OA, histological scoring of stifle joints. Format: in vivo, C57BL6 (B6) mice. Conditions: Example 1; HCQ sulfate 100 mg/kg/day and/or atorvastatin calcium 40 mg/kg/day, oral gavage, 12 weeks; t test. As for the experimental part:
Experiments were performed under protocols approved by the Stanford University Committee of Animal Research and in accordance with NIH guidelines.

Where [10] appears, read: coadministered with HCQ vs methotrexate alone.

Where two headings read alike, the source gives them in different places.

As to `CC(C)c1c(C(=O)Nc2ccccc2)c(-c2ccccc2)c(-c2ccc(F)cc2)n1CC[C@@H](O)C[C@@H](O)CC(=O)O` [Atorvastatin, atorvastatin], the LDL cholesterol in data set [1] stood at 115 mg/day. Further, the “number of nuclei in the GCL (viable retinal ganglion cells)” value in data set [2] (3 months, vs vehicle, two-tailed t test) is “did not differ”. Moreover, the “disarrangement of the GCL” value in data set [2] (HCQ sulfate 100 mg/kg/day and/or atorvastatin calcium 40 mg/kg/day, 3 months) is reported as “no disarrangement”. Further, the “systemic availability for HMG-CoA reductase activity” value in data set [3] is reported as “approximately 30%”. Besides, the “levels of inflammatory cytokines in OA synovium” value in data set [4] was “lower”.

With `CCN(CCO)CCCC(C)Nc1ccnc2cc(Cl)ccc12` (centres unmarked) [HCQ, hydroxychloroquine], in data set [2] (mouse, in vivo), the “number of nuclei in the GCL (viable retinal ganglion cells)” value is “significantly lower”. In data set [5], the “Oral Bioavailability” value was 89%, the T1/2 is 41 days, the “Tmax” value is 0.083 to 0.12 days and the “Vd” value is 605 L. In data set [4], the “levels of inflammatory cytokines in OA synovium” value is given as “lower”. The retinal toxicity in data set [6] (after 5-7 years of use) is about 1%. The “prevalence of retinal toxicity” value in [6] (conventional doses of HCQ (400 mg/day common)) was 6.8 users per 1,000. In addition, in data set [6] (patients), the “clinically apparent eye toxicity” value is reported as “less than 1%”. For the same molecule, the “ophthalmoscopically visualized loss of retinal pigmented epithelium (eye toxicity)” value in data set [6] is recorded as 1%. Moreover, the “physician discontinuation for earlier eye problems” value in data set [6] (treated patients over 5 years) is given as about 7%. The “AUC of HCQ” value in [7] (between dosing occasions) is given as “no significant difference”. Further, the “disease-modifying or pain-reducing activity” value in data set [8] is “failed to demonstrate”. Further, in data set [9], the “Osteophyte score (osteophyte formation)” value is reported as “not as potent” and the Synovitis score result was “not as potent”.

As for `CCN(CC)CCCC(C)Nc1ccnc2cc(Cl)ccc12` (centres unmarked) [chloroquine], the “ophthalmoscopically visualized loss of retinal pigmented epithelium (eye toxicity)” value in data set [6] is recorded as “considerably higher”.

With `CN(Cc1cnc2nc(N)nc(N)c2n1)c1ccc(C(=O)N[C@@H](CCC(=O)O)C(=O)O)cc1` [methotrexate], in data set [7] (setting [10]), the “maximum methotrexate concentration (Cmax)” value is on record as “decreased” and the “mean area under the concentration-time curve (AUC) for methotrexate” value is recorded as “increased”.

The values above are taken from US20140066469A1, “TREATMENT OF DISEASES ASSOCIATED WITH INFLAMMATION” (Department of Veterans Affairs, priority 2012, published 2014).
